Molecules are shown by their SMILES. Several values for one entry are separate records, joined by “and”; a condition that tells them apart may be missing. Equal values may be shown once.

For test [1], the system named is mice. In words: Formalin-induced paw licking. The conditions noted are these: mouse, in vivo, ip. As for the experimental part:
A formalin test was performed according to the method described by Owoyele et al.. Mice were intraperitoneally (i.p.) injected with test samples dissolved in 100 μL of saline and positive control animals were intraperitoneally injected with morphine dissolved in saline. The control group received the same volume of saline. Animals were injected with 20 μL of 5% formalin at the plantar surface of right hind paw after intraperitoneally injected with test samples. They were then placed into open polyvinyl cages (20 cm × 40 cm × 15 cm) individually. The time spent for licking the injected paw by each mouse was recorded by a digital video camera (early phase or neurogenic pain, 0–15 min post-injection and late phase or inflammatory pain, 15–30 min post-injection).
(§1) The results are expressed as the mean ± standard error of the mean (SEM). Statistical significance was calculated using one- or two-way analysis of variance followed by the Student-Newman-Keuls and Bonferroni’s post hoc tests. Significance was defined as p < 0.05.

Test [2] deals with mice. The test can be described thus: Tail-flicking test. The following applies: mouse, in vivo, ip. The procedure:
Mice with pain threshold of 4–6 s were selected for the tail-flicking test. […] A photothermal pain detector (YLS-12A, Jinan, Shandong, China) was used to measure the pain threshold of mice subjected to intense heat and the light beam of the detector was focused on the middle of mouse tail. All of the animals were intraperitoneally injected with saline containing different concentrations of samples and control group received the same volume of saline. Tail withdrawal latency was measured as the time taken to withdraw the tail from the light beam.
as §1

Test [3] has as its system mice. In words: Hot plate test. The conditions noted are these: mouse, in vivo. As for the experimental part: A hot plate apparatus (model HZ66-ZH-YLS-6B, Shanghai, China), maintained at 55 ± 1 °C, was used to test the pain in response to a thermal stimulus. Mice in the control condition showing initial nociceptive responses between 5 and 10 s were selected for the experiment. The latency to the sign of hind paw licking or jumping to avoid heat nociception was taken as the index of the nociceptive threshold. […] A group of mice treated with morphine dissolved in physiological saline was used as a positive control.
as §1
In general terms: Thermal pain tests record how soon the animal reacts.

In the case of `CN1CC[C@]23c4c5ccc(O)c4O[C@H]2[C@@H](O)C=C[C@H]3[C@H]1C5` [morphine], in test [1], the “paw licking time, early phase” value was 94 s and 71 s and 60 s; the “paw licking time, late phase” value is 421 s and 275 s and 211 s. For the same compound, the tail withdrawal latency in test [2] was 6.8 s and 8.9 s and 11.3 s. Moreover, the hot plate latency in test [3] was 12.5 s and 14.3 s and 18.6 s.

The values are drawn from PMC5308240, “A Novel Toxin from Haplopelma lividum Selectively Inhibits the NaV1.8 Channel and Possesses Potent Analgesic Efficacy” (Toxins, 2016).
